Data as given in the NIST ThermoML archive (doi:10.1016/j.jct.2011.08.016).

Assay: xn = mol fraction of the nth substance listed
Conditions: Liquid, Vibrating tube method

CCCCCCCCCC [decane] + CCCCCCCC
Conditions | mass density [kg/m3]
343.11 K, 1000 kPa, x2 = 0.0616 | 691.23
343.11 K, 2000 kPa, x2 = 0.0616 | 692.25
343.11 K, 3000 kPa, x2 = 0.0616 | 693.27
343.11 K, 4000 kPa, x2 = 0.0616 | 694.28
343.11 K, 5000 kPa, x2 = 0.0616 | 695.27
343.11 K, 6000 kPa, x2 = 0.0616 | 696.28
343.11 K, 7000 kPa, x2 = 0.0616 | 697.25
343.11 K, 8000 kPa, x2 = 0.0616 | 698.24
343.11 K, 9000 kPa, x2 = 0.0616 | 699.21
343.11 K, 10000 kPa, x2 = 0.0616 | 700.15
343.11 K, 10990 kPa, x2 = 0.0616 | 701.09
343.11 K, 12000 kPa, x2 = 0.0616 | 702.04
343.11 K, 13000 kPa, x2 = 0.0616 | 702.94
343.11 K, 14000 kPa, x2 = 0.0616 | 703.83
343.11 K, 15000 kPa, x2 = 0.0616 | 704.71
343.11 K, 16000 kPa, x2 = 0.0616 | 705.59
343.11 K, 17000 kPa, x2 = 0.0616 | 706.44
343.11 K, 18000 kPa, x2 = 0.0616 | 707.29
343.11 K, 19000 kPa, x2 = 0.0616 | 708.13
343.11 K, 20000 kPa, x2 = 0.0616 | 708.97
343.11 K, 21000 kPa, x2 = 0.0616 | 709.77
343.11 K, 22000 kPa, x2 = 0.0616 | 710.54
343.11 K, 23000 kPa, x2 = 0.0616 | 711.34
343.11 K, 24000 kPa, x2 = 0.0616 | 712.11
343.11 K, 25000 kPa, x2 = 0.0616 | 712.86
343.12 K, 1000 kPa, x2 = 0.2801 | 686
343.12 K, 1000 kPa, x2 = 0.5314 | 678.98
343.12 K, 1000 kPa, x2 = 0.7736 | 671.23
343.12 K, 2000 kPa, x2 = 0.2801 | 686.96
343.12 K, 2000 kPa, x2 = 0.5314 | 680.05
343.12 K, 2000 kPa, x2 = 0.7736 | 672.36
343.12 K, 3000 kPa, x2 = 0.2801 | 688
343.12 K, 3000 kPa, x2 = 0.5314 | 681.13
343.12 K, 3000 kPa, x2 = 0.7736 | 673.44
343.12 K, 4000 kPa, x2 = 0.2801 | 689.01
343.12 K, 4000 kPa, x2 = 0.5314 | 682.2
343.12 K, 4000 kPa, x2 = 0.7736 | 674.54
343.12 K, 5000 kPa, x2 = 0.2801 | 690.04
343.12 K, 5000 kPa, x2 = 0.5314 | 683.26
343.12 K, 5000 kPa, x2 = 0.7736 | 675.64
343.12 K, 6000 kPa, x2 = 0.2801 | 691.09
343.12 K, 6000 kPa, x2 = 0.5314 | 684.32
343.12 K, 6000 kPa, x2 = 0.7736 | 676.76
343.12 K, 7000 kPa, x2 = 0.2801 | 692.03
343.12 K, 7000 kPa, x2 = 0.5314 | 685.36
343.12 K, 7000 kPa, x2 = 0.7736 | 677.83
343.12 K, 8000 kPa, x2 = 0.2801 | 693.02
343.12 K, 8000 kPa, x2 = 0.5314 | 686.38
343.12 K, 8000 kPa, x2 = 0.7736 | 678.88
343.12 K, 9000 kPa, x2 = 0.2801 | 694
343.12 K, 9000 kPa, x2 = 0.5314 | 687.39
343.12 K, 9000 kPa, x2 = 0.7736 | 679.92
343.12 K, 10000 kPa, x2 = 0.2801 | 694.95
343.12 K, 10000 kPa, x2 = 0.5314 | 688.38
343.12 K, 10000 kPa, x2 = 0.7736 | 680.93
343.12 K, 10990 kPa, x2 = 0.2801 | 695.95
343.12 K, 10990 kPa, x2 = 0.5314 | 689.37
343.12 K, 10990 kPa, x2 = 0.7736 | 681.98
343.12 K, 12000 kPa, x2 = 0.2801 | 696.9
343.12 K, 12000 kPa, x2 = 0.5314 | 690.34
343.12 K, 12000 kPa, x2 = 0.7736 | 682.98
343.12 K, 13000 kPa, x2 = 0.2801 | 697.84
343.12 K, 13000 kPa, x2 = 0.5314 | 691.29
343.12 K, 13000 kPa, x2 = 0.7736 | 683.94
343.12 K, 14000 kPa, x2 = 0.2801 | 698.78
343.12 K, 14000 kPa, x2 = 0.5314 | 692.24
343.12 K, 14000 kPa, x2 = 0.7736 | 684.91
343.12 K, 15000 kPa, x2 = 0.2801 | 699.72
343.12 K, 15000 kPa, x2 = 0.5314 | 693.17
343.12 K, 15000 kPa, x2 = 0.7736 | 685.89
343.12 K, 16000 kPa, x2 = 0.2801 | 700.6
343.12 K, 16000 kPa, x2 = 0.5314 | 694.09
343.12 K, 16000 kPa, x2 = 0.7736 | 686.84
343.12 K, 17000 kPa, x2 = 0.2801 | 701.51
343.12 K, 17000 kPa, x2 = 0.5314 | 695
343.12 K, 17000 kPa, x2 = 0.7736 | 687.8
343.12 K, 18000 kPa, x2 = 0.2801 | 702.35
343.12 K, 18000 kPa, x2 = 0.5314 | 695.89
343.12 K, 18000 kPa, x2 = 0.7736 | 688.72
343.12 K, 19000 kPa, x2 = 0.2801 | 703.17
343.12 K, 19000 kPa, x2 = 0.5314 | 696.76
343.12 K, 19000 kPa, x2 = 0.7736 | 689.61
343.12 K, 20000 kPa, x2 = 0.2801 | 704.02
343.12 K, 20000 kPa, x2 = 0.5314 | 697.62
343.12 K, 20000 kPa, x2 = 0.7736 | 690.48
343.12 K, 21000 kPa, x2 = 0.2801 | 704.83
343.12 K, 21000 kPa, x2 = 0.5314 | 698.47
343.12 K, 21000 kPa, x2 = 0.7736 | 691.35
343.12 K, 22000 kPa, x2 = 0.2801 | 705.63
343.12 K, 22000 kPa, x2 = 0.5314 | 699.29
343.12 K, 22000 kPa, x2 = 0.7736 | 692.2
343.12 K, 23000 kPa, x2 = 0.2801 | 706.41
343.12 K, 23000 kPa, x2 = 0.5314 | 700.11
